For 13 compounds, EC50 results are on record in patent US20230045421A1 (priority 2018, published 2023).

The experiment relates to HBV rcDNA. As to the kind of experiment: HepDE19 assay with bDNA quantitation of HBV rcDNA. Format: cell-based, hepatitis B virus. Summed up: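 HepDE19 cells (HepG2-derived, Tet-regulated HBV replication) were deprived of tetracycline and then exposed to compounds for 7 days at 37 °C in 0.5% DMSO, 8-point titration from 25 μM. rcDNA was quantified by bDNA and EC50/EC90 came from 4-parameter fits. CC50 was measured by CellTiter-Glo ATP content on replicate plates after 4 days.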

Setting [1] is: HepDE19 assay, inhibition of formation of relaxed circular DNA (rcDNA), bDNA quantitation; read-out: DE-19bDNA EC50.
Setting [2] is: Hepatitis B virus, HepDE19, HepDE19 assay, inhibition of formation of rcDNA; read-out: DE-19bDNA EC50.
Where [3] appears, read: HepDE19 assay, inhibition of formation of rcDNA; read-out: DE-19bDNA EC50.

Where two headings read alike, the source gives them in different places.

Regarding `CCN(C(=O)Nc1ccc(F)cc1)C(C)c1c[nH]c(=O)c2cc(F)c(F)cc12` (single isomer, unassigned) [Compound 403, 1-(1-(6,7-Difluoro-1-oxo-1,2-dihydroisoquinolin-4-yl)ethyl)-1-ethyl-3-(4-fluorophenyl)urea], the EC50 under setting [1] came out at 28 nM.
Regarding `CNc1ncc(C(C)N(C)C(=O)Nc2ccc(F)c(Cl)c2)c2nccnc12` (racemic) [Compound 136, 3-(3-chloro-4-fluorophenyl)-1-methyl-1-(1-(5-(methylamino)pyrido[3,4-b]pyrazin-8-yl)ethyl)urea], under setting [2], the EC50 was found to be 2800 nM.
Take `CC(c1c[nH]c(=O)c2c(F)c(F)ccc12)N(C)C(=O)Nc1ccc(F)c(C#N)c1` (single isomer, unassigned) [Compound 470, 3-(3-Cyano-4-fluorophenyl)-1-(1-(7,8-difluoro-1-oxo-1,2-dihydroisoquinolin-4-yl)ethyl)-1-methylurea]: the EC50 under setting [1] is 2000 nM.
As to `COc1ncc(C(C)N(CC2CC2)C(=O)Nc2ccc(F)c(Cl)c2)c2ccccc12` (single isomer, unassigned) [Compound 64, 3-(3-Chloro-4-fluorophenyl)-1-(cyclopropylmethyl)-1-(1-(1-methoxyisoquinolin-4-yl)ethyl)urea], under setting [3], the EC50 amounted to 120 nM.
Take `CC(c1c[nH]c(=O)c2cnccc12)N(CCCO)C(=O)Nc1ccc(F)c(Cl)c1` (stereo not shown) [Compound 159, 3-(3-Chloro-4-fluorophenyl)-1-(3-hydroxypropyl)-1-(1-(1-oxo-1,2-dihydro-2,7-naphthyridin-4-yl)ethyl)urea]: under setting [2], the EC50 was found to be 100 nM.
`CC(c1c[nH]c(=O)c2cc(F)c(F)cc12)N(CCCO)C(=O)Nc1ccc(F)cc1` (single isomer, unassigned) [Compound 292, 1-(1-(6,7-Difluoro-1-oxo-1,2-dihydroisoquinolin-4-yl)ethyl)-3-(4-fluorophenyl)-1-(3-hydroxypropyl) urea]: the EC50 under setting [1] was 10 nM.
Turning to `CC(c1c[nH]c(=O)c2ccccc12)N(C[C@H]1CCCO1)C(=O)Nc1ccc(F)c(Cl)c1` (single isomer, unassigned) [Compound 156], the EC50 under setting [3] came out at 170 nM.
For the compound `CC(c1cn(C)c(=O)c2c(F)cccc12)N(C)C(=O)Nc1ccc(F)c(Cl)c1` (single isomer, unassigned) [Compound 359, 3-(3-Chloro-4-fluorophenyl)-1-(1-(8-fluoro-2-methyl-1-oxo-1,2-dihydroisoquinolin-4-yl)ethyl)-1-methylurea], the EC50 under setting [1] came to 23 nM.
As to `CC(c1c[nH]c(=O)c2ccccc12)N(CCCN)C(=O)Nc1ccc(F)c(Cl)c1` (racemic) [Compound 157, 1-(3-aminopropyl)-3-(3-chloro-4-fluorophenyl)-1-(1-(1-oxo-1,2-dihydroisoquinolin-4-yl)ethyl)urea], the EC50 under setting [2] stood at 23000 nM.
Same read-out and setting: the result for `C[C@H](c1c[nH]c(=O)c2ccccc12)N(C)C(=O)Nc1ccc(F)cc1` [Compound 90, (R)-3-(4-Fluorophenyl)-1-methyl-1-(1-(1-oxo-1,2-dihydroisoquinolin-4-yl)ethyl)urea] reads 460 nM.
With `CCN(C(=O)Nc1ccc(F)cc1)C(C)c1c[nH]c(=O)c2c(F)c(F)ccc12` (single isomer, unassigned) [Compound 465, 1-(1-(7,8-Difluoro-1-oxo-1,2-dihydroisoquinolin-4-yl)ethyl)-1-ethyl-3-(4-fluorophenyl)urea], under setting [1], the EC50 came to 19 nM.
`CC(c1c[nH]c(=O)c2c(F)c(F)ccc12)N(C)C(=O)Nc1ccc(Cl)cc1` (single isomer, unassigned) [Compound 445, 3-(4-Chlorophenyl)-1-(1-(7,8-difluoro-1-oxo-1,2-dihydroisoquinolin-4-yl)ethyl)-1-methylurea]: under “read-out: DE-19bDNA EC50; HepDE19 assay, inhibition of formation of relaxed circular DNA (rcDNA), bDNA quantitation”, the EC50 stood at 220 nM.
For `CC(C)CN(C(=O)Nc1ccc(F)cc1)C(C)c1cnc(-n2cncn2)c2ccccc12` (racemic) [Compound 301, 1-(1-(1-(1H-1,2,4-Triazol-1-yl)isoquinolin-4-yl)ethyl)-3-(4-fluorophenyl)-1-isobutylurea], where the note is “Hepatitis B virus, HepDE19, HepDE19 assay, inhibition of formation of relaxed circular DNA (rcDNA), bDNA quantitation; read-out: DE-19bDNA EC50”, the EC50 is 51 nM.
